Experimental data taken from the supplement of paper PMC10307832.

Tests used:
Assay in all cases: relative viability (nuclei count vs DMSO), 5 days (fraction); higher = more cells survive
[1] = compound: Cc1ccc(C(=O)N(CCCN)[C@@H](c2nc3cc(Cl)ccc3c(=O)n2Cc2ccccc2)C(C)C)cc1 [Ispinesib] + CS(=O)(=O)N1CCN(Cc2cc3nc(-c4cccc5[nH]ncc45)nc(N4CCOCC4)c3s2)CC1 [Pictilisib] (partner 1 µM)
Outline: (§1)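 Relative viability equals treated-well nuclei counts divided by vehicle-well nuclei counts. Counts came from 4× images of lung cancer cell lines grown in 1536-well plates for 5 days after pin-tool dosing on the day after seeding. Dosing used one drug alone or a fixed anchor-drug dose plus five library-drug doses (not always all listed) in √10 steps, and values are medians of duplicate plates.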

[2] = compound: Cc1ccc(C(=O)N(CCCN)[C@@H](c2nc3cc(Cl)ccc3c(=O)n2Cc2ccccc2)C(C)C)cc1 [Ispinesib] + CC(C)C[C@H](NC(=O)[C@H](Cc1ccccc1)NC(=O)c1cnccn1)B(O)O [Bortezomib] (partner 0.002 µM)
Outline: as §1

[3] = compound: C[C@]1(O)C[C@@H](c2nc(-c3ccc4ccc(-c5ccccc5)nc4c3)c3c(N)nccn32)C1 [Linsitinib] + Nc1nc2[nH]cc(CCc3ccc(C(=O)N[C@@H](CCC(=O)O)C(=O)O)cc3)c2c(=O)[nH]1 [Pemetrexed] (partner 0.2 µM)
Outline: as §1

[4] = compound: Cc1ccc(C(=O)N(CCCN)[C@@H](c2nc3cc(Cl)ccc3c(=O)n2Cc2ccccc2)C(C)C)cc1 [Ispinesib] + CC(=O)c1c(C)c2cnc(Nc3ccc(N4CCNCC4)cn3)nc2n(C2CCCC2)c1=O [Palbociclib] (partner 0.5 µM)
Outline: as §1

Cell Line	relative viability ([1]; first compound 0.001 µM)	relative viability ([1]; first compound 0.003162 µM)	relative viability ([1]; first compound 0.01 µM)	relative viability ([1]; first compound 0.1 µM)	relative viability ([2]; first compound 0.001 µM)	relative viability ([2]; first compound 0.003162 µM)	relative viability ([2]; first compound 0.01 µM)	relative viability ([2]; first compound 0.03162 µM)	relative viability ([2]; first compound 0.1 µM)	relative viability ([3]; first compound 0.03162 µM)	relative viability ([3]; first compound 0.1 µM)	relative viability ([3]; first compound 0.3162 µM)	relative viability ([3]; first compound 1 µM)	relative viability ([4]; first compound 0.001 µM)	relative viability ([4]; first compound 0.003162 µM)	relative viability ([4]; first compound 0.01 µM)	relative viability ([4]; first compound 0.03162 µM)	relative viability ([4]; first compound 0.1 µM)	relative viability ([1]; first compound 0.03162 µM)	relative viability ([3]; first compound 0.01 µM)
HCC-78	0.223	0.198	0.235	0.247	0.504	0.531	0.459	0.308	0.394	0.897	0.913	0.882	0.925	0.427	0.586	0.516	0.473	0.351	–	–
HCC-366	0.082	0.161	0.143	0.0851	1.29	1.1	1.43	0.323	0.0344	0.0729	0.156	0.119	0.127	0.289	0.448	0.497	0.5	0.0937	0.0978	0.138
HCC-827	0.979	0.964	1.05	0.734	1.1	1.18	1.04	0.691	0.875	0.24	0.32	–	0.262	0.496	0.49	0.58	0.543	0.477	0.8	0.149
HOP-62	0.568	0.784	0.785	0.148	0.46	0.974	1.18	1.09	0.32	0.251	0.311	–	0.281	0.448	0.548	0.617	0.516	0.388	0.306	0.325
IA-LM	0.484	0.352	0.278	0.121	1.09	0.814	0.866	0.0909	0.111	–	–	–	–	–	–	–	–	–	0.173	–
LC-2-ad	0.507	0.509	0.438	0.133	1.01	1.07	1.07	0.917	0.119	0.264	0.256	0.266	0.259	0.541	0.54	0.566	0.482	0.272	0.0946	0.272
LK-2	0.645	0.632	0.744	0.443	–	–	–	–	–	0.285	0.148	0.215	0.153	0.687	0.821	0.824	0.743	0.188	0.438	0.123
NCI-H358	0.298	0.359	0.377	0.245	–	–	–	–	–	0.168	0.183	0.141	0.162	0.125	0.13	0.143	0.106	0.0965	0.227	0.187
NCI-H522	–	–	–	–	–	–	–	–	–	0.839	1.01	0.652	0.839	1	0.965	1.01	0.903	1.02	–	0.831
NCI-H596	0.416	0.377	0.372	0.251	1.14	1.22	1.12	1.08	0.463	0.428	0.497	0.447	0.46	–	–	–	–	–	0.361	0.552
NCI-H727	–	0.461	0.313	0.239	–	1.71	1.21	0.762	0.337	–	–	–	–	0.565	0.66	–	0.678	0.617	0.232	–
NCI-H1299	0.951	0.727	0.789	0.152	1.02	1.06	1.07	1.01	0.671	–	–	–	–	–	–	–	–	–	0.37	–
NCI-H1395	0.604	0.663	0.63	0.383	–	–	–	–	–	–	0.979	0.673	0.835	0.721	0.642	0.412	0.444	0.463	0.368	0.77
NCI-H1563	0.68	0.723	0.533	0.528	0.903	0.815	0.929	0.687	0.669	0.883	0.718	1.09	0.752	–	–	–	–	–	0.54	0.791
NCI-H1648	–	–	–	–	–	–	–	–	–	0.553	0.658	0.592	0.826	0.285	0.297	0.248	0.291	0.256	–	0.95
NCI-H1703	0.248	0.218	0.181	0.136	0.28	0.298	0.0844	0.0907	0.106	–	–	–	–	–	–	–	–	–	0.123	–
NCI-H1793	0.331	0.404	0.39	0.124	–	–	–	–	–	0.819	0.842	0.584	0.63	0.358	0.314	0.31	0.312	0.219	0.217	0.834
NCI-H1944	0.402	0.398	0.341	0.219	–	–	–	–	–	0.574	0.661	0.426	0.492	0.347	0.35	0.353	0.279	0.304	0.288	0.597
NCI-H2170	0.317	0.312	0.295	0.288	–	–	–	–	–	0.241	0.251	–	0.276	0.402	0.36	0.431	0.282	0.257	0.254	0.255
NCI-H2342	–	–	–	–	–	–	–	–	–	0.746	0.732	0.82	0.704	0.571	0.539	0.556	0.541	0.522	–	0.731
SK-MES-1	0.374	0.334	0.447	0.24	–	–	–	–	–	0.795	0.958	0.784	0.753	0.277	0.345	0.319	0.154	0.224	0.35	0.991
SW 900	–	–	–	–	–	–	–	–	–	0.44	0.478	0.438	0.405	0.566	0.638	0.609	0.624	0.321	–	0.484
